Reference: publication PMC4838890, “Dynamic and flexible H3K9me3 bridging via HP1β dimerization establishes a plastic state of condensed chromatin” (Nature Communications, 2016)
Where two headings read alike, the source gives them in different places.

Key:
H3K9me3 peptide = biological target: T1, H3K9me3 peptide (Homo sapiens, UniProt P68431); test: Pull-down, immobilized H3K9me3 peptide; assay type: binding; conditions: H3-tail peptides densely immobilized on magnetic beads, 100 pmol protein, 150 mM NaCl, 4°C
T1 construct: C-terminally biotinylated histone H3 peptides (aa 1–20)
Protocol: (§1) 4 μg C-terminally biotinylated histone H3 peptides (aa 1–20) or 1 μg of biotinylated nucleosomes or oligonucleosomal arrays were incubated with 40 μl Streptavidin MagnaSphere Paramagmetic beads (Promega, Mannheim, Germany) in 350 μl binding buffer (10 mM triethanolamine (pH 7.5), 150 mM NaCl, 0.1 mM EDTA, 0.1% (v/v) Triton-X100) supplemented with 1 mg ml^−1 BSA for 2.5 h at RT. Unbound material was removed by three washes with 0.5 ml binding buffer. Charged beads were then incubated with 100 pmol recombinant protein in 350 μl binding buffer for 1 h at 4°C on a rotator. Beads were washed three times with 0.5 ml binding buffer for 3 min per wash at 4°C. Bound proteins were eluted in 20 μl 1 × SDS loading buffer and by boiling for 5 min.
(§2) Supplementary Table 1: Summary of conditions used in the different experiments of this study. experiment result modification template Temp. [NaCl] [MgCl2] […]
(§3) chromatin Fig. 1e,f; Fig. S1f-h; H3K9me3 oligo- 4 150 5 coprecipitation Fig. S2b nucleosomes
(§4) Fig. S7d,f; Fig.S9c nucleosomes […]
(§5) chromatin sedimentation Fig. 4a; H3K9me3 oligo- 4 150 0
(§6) (single point) Fig. S3b nucleosomes […]
(§7) chromatin sedimentation. oligo-(titration) Fig. 3a H3K9me3 nucleosomes 4 150 0

H3KC9me3 peptide = test: ITC, H3KC9me3 peptide; assay type: binding; conditions: for Kd: ITC, pH 7.5, 25°C, read-out: Kd (apparent dissociation constant)
Protocol: ITC measurements were performed on a iTC200 calorimeter (Microcal, Malvern, UK) at 25°C in binding buffer (10 mM triethanolamine (pH 7.5), 20 or 150 mM NaCl, 0.1 mM EDTA). Reaction heats were recorded by sequences of 37 injections of 1.8 mM hHP1β, spaced at 120 s intervals, into 250 μl of 60 μM H3 peptides, nucleosomes or oligonucleosomal arrays under constant stirring at 1,000 r.p.m. (injection #1–10: 0.5 μl each; injection #11–32: 1 μl each; injection #33–37: 2 μl each). Heats of dilution, obtained by the titration of hHP1β into buffer, were substracted from raw data before analysis. Raw data were integrated, normalized and the apparent heat change (Δq) of the reaction was plotted against the molecular ratio using the Origin software. For the determination of apparent enthalpy changes (ΔHapp), the molar association constant (KA), and the stoichiometry (n) of the interaction, non-linear least-square fitting of the Δq values was performed by the Origin software using a binding model of one set of identical binding sites.
as §2, §3, §4, §5, §6, §7

DNA fragment of 150 bp = test: Electrophoretic mobility shift assay (EMSA); assay type: binding; conditions: 150 bp DNA, 0, 3, 9 μM protein, 100 mM NaCl, 5 mM MgCl2, RT
Protocol: 50 ng 150 bp DNA amplified from the backbone of pUC18 was incubated with 0, 3, 9 μM recombinant protein in 10 μl EMSA buffer (10 mM Tris-HCl (pH 8.0), 100 mM NaCl, 5 mM MgCl2) for 20 min at room temperature (RT). 2 μl 50% (v/v) glycerol was added and samples were loaded onto 6% native PAGE gels. After electrophoresis, DNA was visualized by staining with 1 × SYBR Gold/0.25 × TBE for 20 min at RT. Images were captured using a ChemiDoc MP Imaging System (Bio-Rad, München, Germany). […]
crosslinking Fig. S6e,f nucleosomes […]
crosslinking Fig. S7a,b nucleosomes
EMSA Fig. 1g; Fig. 5c; n//a RT 100 5
1Preincubation of oligonucleosomes and h HP1β was performed at 4 °C . Measurements wer e carried out at the in dicated te mperature.
2in increments o f 0 .5 mM
3MgCl2 was added at the end of incubation to coprecipitate oligonucleosomes a nd bound hHP1β.

[1] = test system: immobilized H3 tail peptides, mono- and oligonucleosomes; test: Pull-down, H3 tail peptides, mono- and oligonucleosomes; assay type: binding, Xenopus laevis; conditions: immobilized on streptavidin beads, 4°C
Protocol: as §1, §2, §3, §4, §5, §6, §7

H3K9me0 oligonucleosomes = test: Fluorescence correlation spectroscopy (FCS), H3K9me0 oligonucleosomes; assay type: biochemical, Xenopus laevis; conditions: 150 mM NaCl
Protocol: All fluorescence measurements were performed with a pulsed custom-built mode-locked Ti:Sa-Laser and a confocal two-photon fluorescence microscope setup. Detailed description of the experimental setup and the measurement procedure are available on request. In all cases 10 nM of the acceptor labelled species, ATTO 610-labelled nucleosomal array, was incubated with 20–200 μM of recombinant hHP1β in 10 μl of 10 mM triethanolamine HCl (pH 7.5), 0.1 mM EDTA, 150 mM NaCl at 4°C. For each sample the fluorescence correlation curve, fluorescence intensity and anisotropy values were determined at 22°C. Every data point was averaged over a minimum of 15 single measurements of 10 s each. […]
The fluorescence data were analysed using the correlation function [drawing 1] , and the equation for free diffusion of particles [drawing 2] , where I(t) is the fluorescence intensity measured at time t, N the particle number, τD the diffusion time, and r0=0.25 the axis ratio of the focal region, considering the dimensions of a Gaussian beam waist. […]
(b) Results of stepwise precipitation and resolubilization after clustering H3K9me3-oligonucleosomes by hHP1β at different concentrations. DNA remaining in the supernatant after centrifugation was incubated with EtBr and measured by fluorescence reading. […]
(c) Instrumental setup used for two -photon fluorescence correlation spectroscopy (FCS). […]

Substance | recovery on H3K9me3 peptide (H3K9me3 peptide) | Kd (H3KC9me3 peptide; 20 mM NaCl) [µM] | Kd (H3KC9me3 peptide; 150 mM NaCl) [µM] | reduced binding to H3-tail peptide containing H3KC9me compared with methylated lysine (H3KC9me3 peptide; Table 1, ref [17]) | DNA binding (DNA fragment of 150 bp) | retention on H3K9me3 versus unmodified matrices [1] | assemblies with H3K9me0 oligonucleosomes (FCS) (H3K9me0 oligonucleosomes)
hHP1β I161A: CSD point mutant of hHP1β incapable of dimerization | significantly reduced recovery |  |  |  |  |  | 
hHP1β WT: recombinant human heterochromatin protein 1β (GenBank NM_001127228), 185 aa |  | 11 ± 4 | 21 ± 3 | sixfold reduced binding | hHP1α but not hHP1β showed a high level of general DNA binding | retained much more efficiently on all three matrices in the presence of H3K9me3 | larger assemblies only appeared at high hHP1β WT concentrations
